In US20250304549A1, “HYDROXYAMIDE DERIVATIVE AND USE THEREOF” (SICHUAN HUIYU PHARMACEUTICAL CO., LTD., priority 2022, published 2025):
Where a name gives a salt, the structure may show the parent alone.

Assays:
LSD1 = LSD1 (Homo sapiens (Human), UniProt O60341); experiment: In vitro enzyme inhibition assay - LSD1 (HTRF); type: biochemical
pan-HDAC = experiment: In vitro enzyme inhibition assay - HDAC (HDAC-Glo I/II), pan-HDAC; type: biochemical
Summary of the method: (§1)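 The compound, serially diluted 5-fold in DMSO across 8 concentrations starting from a 1 mM stock, was made up as 4× working solutions in HDAC buffer. It was then tested in the HDAC-Glo I/II system, and luminescence was recorded. IC50 values came from variable-slope four-parameter curves of inhibition rate.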

HDAC1 = HDAC1 (Homo sapiens (Human), UniProt Q13547); experiment: In vitro enzyme inhibition assay - HDAC (HDAC-Glo I/II), HDAC1; type: biochemical; conditions: read-out: HDAC IC50 (nM) HDAC 1
HDAC1, sequence (Q13547 whole entry): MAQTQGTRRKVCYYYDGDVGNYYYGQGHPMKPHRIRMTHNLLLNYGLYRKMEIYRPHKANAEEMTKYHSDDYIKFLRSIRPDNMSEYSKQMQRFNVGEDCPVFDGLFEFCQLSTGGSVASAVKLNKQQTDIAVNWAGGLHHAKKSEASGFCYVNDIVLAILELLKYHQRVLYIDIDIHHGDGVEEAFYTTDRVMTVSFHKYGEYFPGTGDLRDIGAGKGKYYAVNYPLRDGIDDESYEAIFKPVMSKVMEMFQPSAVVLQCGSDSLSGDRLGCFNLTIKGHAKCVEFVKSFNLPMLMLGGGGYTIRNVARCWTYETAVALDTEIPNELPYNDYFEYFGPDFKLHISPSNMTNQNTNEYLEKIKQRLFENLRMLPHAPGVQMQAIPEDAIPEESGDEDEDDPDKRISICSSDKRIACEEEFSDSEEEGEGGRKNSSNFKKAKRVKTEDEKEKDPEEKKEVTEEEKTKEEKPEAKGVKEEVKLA
Summary of the method: as §1

HDAC8 = HDAC8 (Homo sapiens (Human), UniProt Q9BY41); experiment: In vitro enzyme inhibition assay - HDAC (HDAC-Glo I/II), HDAC8; type: biochemical; conditions: read-out: HDAC IC50 (nM) HDAC 8
HDAC8, sequence (Q9BY41 whole entry): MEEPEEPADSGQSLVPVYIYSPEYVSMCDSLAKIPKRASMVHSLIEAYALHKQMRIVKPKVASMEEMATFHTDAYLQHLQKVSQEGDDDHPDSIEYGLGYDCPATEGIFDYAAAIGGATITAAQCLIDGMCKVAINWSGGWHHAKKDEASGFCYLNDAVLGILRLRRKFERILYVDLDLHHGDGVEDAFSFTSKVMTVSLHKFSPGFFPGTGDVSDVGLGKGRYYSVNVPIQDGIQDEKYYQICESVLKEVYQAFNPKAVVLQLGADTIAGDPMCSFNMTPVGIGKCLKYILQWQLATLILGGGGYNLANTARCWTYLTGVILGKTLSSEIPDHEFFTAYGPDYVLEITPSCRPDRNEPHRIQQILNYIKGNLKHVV
Summary of the method: as §1

NCI-H1417 cells = experiment: In vitro cell inhibition assay - H1417 cell proliferation (CellTiter-Glo); type: cell-based; conditions: Homo sapiens, NCI-H1417, H1417 small cell lung cancer cell proliferation
Summary of the method: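 Cells exposed to 8 compound concentrations (5-fold dilutions) in BEGM with 10% FBS for 7 days at 37° C., 5% CO2. Viable cells measured by CellTiter-Glo luminescence; inhibition versus no-inhibitor and no-cell controls, IC50 fitted.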

NCI-H69 cells = experiment: In vitro cell inhibition assay - NCI-H69 cell proliferation (CellTiter-Glo); type: cell-based; conditions: Homo sapiens, NCI-H69, H69 small cell lung cancer cell proliferation
Summary of the method: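 Over 7 days at 37° C. and 5% CO2, cells grew in RPMI-640 supplemented with 20% FBS in the presence of eight 5-fold-spaced compound concentrations.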

DU145 cells = experiment: In vitro cell inhibition assay - DU145 cell proliferation (CellTiter-Glo); type: cell-based; conditions: Homo sapiens, DU-145, Du145 prostate cancer cell proliferation
Summary of the method: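 DU145 cells were seeded at 1×10^3 per well, exposed next day to an 8-point, 5-fold compound dilution series in RPMI-640 with 10% FBS, and incubated 6 days at 37° C. Viable cells were measured by CellTiter-Glo luminescence, and IC50 was fitted from inhibition rates relative to no-inhibitor and no-cell controls.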

NCI-H526 cells = experiment: In vitro cell inhibition assay - NCI-H526 cell proliferation (CellTiter-Glo); type: cell-based; conditions: Homo sapiens, NCI-H526, 120 h, H526 small cell lung cancer cell proliferation, 5 days
Summary of the method: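 NCI-H526 cells plated at 1×10^3 per well overnight, then treated with 8 concentrations (5-fold dilutions) in RPMI-640 with 10% FBS for 5 days at 37° C., 5% CO2. Viable cells quantified by CellTiter-Glo luminescence; IC50 fitted from inhibition rates relative to no-inhibitor and no-cell controls.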

Row | SMILES | IC50 (LSD1) [nM] | IC50 (pan-HDAC) [nM] | IC50 (HDAC1) [nM] | IC50 (HDAC8) [nM] | IC50 (NCI-H1417 cells) [nM] | IC50 (NCI-H69 cells) [nM] | IC50 (DU145 cells) [nM] | IC50 (NCI-H526 cells) [nM]
1 | COc1ccc(-c2cnc(N3CCC(NCc4ccc(/C=C/C(=O)NO)cn4)CC3)c(C#N)c2-c2ccc(C#N)c(F)c2)cc1O [Example 104, (E)-3-(6-((1-(3-Cyano-4-(4-cyano-3-fluorophenyl)-5-(3-hydroxy-4-methoxyphenyl)pyridin-2-yl)piperidin-4-yl)amino)methyl) pyridin-3-yl)-N-hydroxyacrylamide formate] | 0.71 | 10.7 | 5.3 | 70.1 | 6.58 | 2.29 | 24.8 | 16.9
2 | COc1ccc(-c2cnc(N3CCC(NCc4ccc(/C=C/C(=O)NO)s4)CC3)c(C#N)c2-c2ccc(C#N)c(F)c2)cc1O [Example 105, (E)-3-(5-(((1-(3-Cyano-4-(4-cyano-3-fluorophenyl)-5-(3-hydroxy-4-methoxyphenyl)pyridin-2-yl)piperidin-4-yl)amino)methyl)thiophen-2-yl)-N-hydroxyacrylamide formate] | 1.24 | 114 | 120 | 185 | 4.48 | 102 | 317 | 124
3 | COc1ccc(-c2cnc(N3CCC(NCc4cnc(/C=C/C(=O)NO)nc4)CC3)c(C#N)c2-c2ccc(C#N)c(F)c2)cc1O [Example 106, (E)-3-(5-(((1-(3-Cyano-4-(4-cyano-3-fluorophenyl)-5-(3-hydroxy-4-methoxyphenyl)pyridin-2-yl)piperidin-4-yl)amino)methyl)pyrimidin-2-yl)-N-hydroxyacrylamide formate] | 2.62 | 4.85 | 3.81 | 13.1 | 3.29 | 3.48 | 13.6 | 7.09
4 | COc1ccc(-c2cnc(N3CCC(NCc4ccc(/C=C/C(=O)NO)c(OC)c4)CC3)c(C#N)c2-c2ccc(C#N)c(F)c2)cc1O [Example 108, (E)-3-(4-(((1-(3-Cyano-4-(4-cyano-3-fluorophenyl)-5-(3-hydroxy-4-methoxyphenyl)pyridin-2-yl)piperidin-4-yl)amino)methyl)-2-methoxyphenyl)-N-hydroxyacrylamide formate] | 2.3 | 26.6 | 25.8 | 93.1 | 4.4 | 16 | 28.6 | 13.8
5 | Cc1noc2cc(-c3cnc(N4CCC(NCc5ccc(/C=C/C(=O)NO)cc5)CC4)c(C#N)c3-c3ccc(C#N)c(F)c3)c(F)cc12 [Example 110, (E)-3-(4-((1-(3-Cyano-4-(4-cyano-3-fluorophenyl)-5-(5-fluoro-3-methylbenzo[d]isoxazol-6-yl)pyridin-2-yl)piperidin-4-yl)amino)methyl) phenyl)-N-hydroxyacrylamide formate] | 1.05 | 57.3 | 156 | 137 | 2.7 | 82.7 | 187 | 127
6 | N#Cc1ccc(-c2c(-c3ccc(C4CC4)c(O)c3)cnc(N3CCC(NCc4ccc(/C=C/C(=O)NO)cc4)CC3)c2C#N)cc1F [Example 111, (E)-3-(4-((1-(3-Cyano-4-(4-cyano-3-fluorophenyl)-5-(4-cyclopropyl-3-hydroxyphenyl)pyridin-2-yl)piperidin-4-yl)amino)methyl) phenyl)-N-hydroxyacrylamide formate] | 1.56 | 65.3 | 83.1 | 358 | 1.98 | 3.41 | 14.2 | 16.2
7 | COc1ccc(-c2cnc(N3CCC(NCc4cnc(/C=C/C(=O)NO)s4)CC3)c(C#N)c2-c2ccc(C#N)c(F)c2)cc1O [Example 112, (E)-3-(5-((1-(3-Cyano-4-(4-cyano-3-fluorophenyl)-5-(3-hydroxy-4-methoxyphenyl)pyridin-2-yl)piperidin-4-yl)amino)methyl) thiazol-2-yl)-N-hydroxyacrylamide formate] | 2.66 | 26.9 | 26.3 | 81.4 | 4.14 | 32.7 | 86.8 | 63.5
8 | N#Cc1ccc(-c2cnc(N3CCC(NCc4ccc(/C=C/C(=O)NO)cc4)CC3)c(C#N)c2-c2ccc(C#N)c(F)c2)cc1O [Example 113, (E)-3-(4-(((1-(3-Cyano-4-(4-cyano-3-fluorophenyl)-5-(4-cyano-3-hydroxyphenyl)pyridin-2-yl)piperidin-4-yl)amino)methyl)phenyl)-N-hydroxyacrylamide formate] | 2 | 25 | 17.3 | 72.7 | 29.8 | 76.3 | 130 | 80
9 | COc1ccc(-c2cnc(N3CCC(NCc4cccc(/C=C/C(=O)NO)c4)CC3)c(C#N)c2-c2ccc(C#N)c(F)c2)cc1O [Example 114, (E)-3-(3-(3-Cyano-4-(4-cyano-3-fluorophenyl)-5-(3-hydroxy-4-methoxyphenyl)pyridin-2-yl)piperidin-4-yl)amino)methyl) phenyl)-N-hydroxyacrylamide formate] | 0.97 | 175 | 178 | 571 | 9.4 | 78.2 | 391 | 155
10 | N#Cc1ccc(-c2c(-c3ccc(OC(F)(F)F)c(O)c3)cnc(N3CCC(NCc4ccc(/C=C/C(=O)NO)cc4)CC3)c2C#N)cc1F [Example 116, (E)-3-(4-(1-(3-Cyano-4-(4-cyano-3-fluorophenyl)-5-(3-hydroxy-4-(trifluoromethoxy)phenyl)pyridin-2-yl)piperidin-4-yl)amino)methyl) phenyl)-N-hydroxyacrylamide formate] | 1.82 | 12.7 | 5.59 | 212 | 4.89 | 33.8 | 82 | 33.8
11 | COc1ccc(-c2cnc(N3CCC(NCc4ccc(/C=C/C(=O)NO)cc4)CC3)c(C#N)c2-c2ccc(C#N)cc2)cc1O [Example 118, (E)-3-(4-((1-(3-Cyano-4-(4-cyanophenyl)-5-(3-hydroxy-4-methoxyphenyl)pyridin-2-yl)piperidin-4-yl)amino)methyl) phenyl)-N-hydroxyacrylamide formate] | 0.58 | 0.75 | 0.44 | 30.3 | 2.8 | 3.24 | 11.8 | 8.09
12 | N#Cc1ccc(-c2c(-c3ccc(OC(F)F)c(O)c3)cnc(N3CCC(NCc4ccc(/C=C/C(=O)NO)cc4)CC3)c2C#N)cc1F [Example 124, (E)-3-(4-(((1-(3-Cyano-4-(4-cyano-3-fluorophenyl)-5-(4-(difluoromethoxy)-3-hydroxyphenyl)pyridin-2-yl))piperidin-4-yl)amino)methyl) phenyl)-N-hydroxyacrylamide formate] | 1.63 | 7.69 | 3.95 | 179 | 3.34 | 18.3 | 30.5 | 20.6
13 | N#Cc1ccc(-c2c(-c3ccc(Br)c(O)c3)cnc(N3CCC(NCc4ccc(/C=C/C(=O)NO)cc4)CC3)c2C#N)cc1F [Example 127, (E)-3-(4-(((1-(5-(4-Bromo-3-hydroxyphenyl)-3-cyano-4-(4-cyano-3-fluorophenyl)pyridin-2-yl)piperidin-4-yl)amino)methyl)phenyl)-N-hydroxyacrylamide formate] | 1.2 | 12.4 | 5.82 | 423 | 2.65 | 8.85 | 15.5 | 15.4
14 | COc1cc(F)c(-c2cnc(N3CCC(NCc4ccc(/C=C/C(=O)NO)cc4)CC3)c(C#N)c2-c2ccc(C#N)c(F)c2)cc1O [Example 130, (E)-3-(4-((1-(3-Cyano-4-(4-cyano-3-fluorophenyl)-5-(2-fluoro-5-hydroxy-4-methoxyphenyl)pyridin-2-yl)piperidin-4-yl)amino)methyl) phenyl)-N-hydroxyacrylamide formate] | 1.89 | 6.13 | 0.77 | 220 | 1.09 | 25.2 | 25 | 22.8
